Experimental data taken from ChEMBL document CHEMBL1149317, “Synthesis and in vitro antifolate activity of rotationally restricted aminopterin and methotrexate analogues” (J Med Chem, 2004).

What was measured:
Dihydrofolate reductase = target: T1, Dihydrofolate reductase (Homo sapiens, UniProt P00374); test: Inhibition of human DHFR
T1 sequence (P00374 whole entry): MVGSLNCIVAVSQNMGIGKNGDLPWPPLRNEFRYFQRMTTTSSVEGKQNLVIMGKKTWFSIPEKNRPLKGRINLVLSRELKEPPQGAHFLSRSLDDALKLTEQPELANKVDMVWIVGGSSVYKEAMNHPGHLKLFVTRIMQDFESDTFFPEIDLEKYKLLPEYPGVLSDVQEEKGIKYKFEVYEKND

[1] = target: T2, Reduced folate transporter (Homo sapiens, UniProt P41440); test: Inhibition of RFC-mediated [3H]MTX influx into human CCRF-CEM cells; assay type: cell-based
T2 sequence (P41440 whole entry): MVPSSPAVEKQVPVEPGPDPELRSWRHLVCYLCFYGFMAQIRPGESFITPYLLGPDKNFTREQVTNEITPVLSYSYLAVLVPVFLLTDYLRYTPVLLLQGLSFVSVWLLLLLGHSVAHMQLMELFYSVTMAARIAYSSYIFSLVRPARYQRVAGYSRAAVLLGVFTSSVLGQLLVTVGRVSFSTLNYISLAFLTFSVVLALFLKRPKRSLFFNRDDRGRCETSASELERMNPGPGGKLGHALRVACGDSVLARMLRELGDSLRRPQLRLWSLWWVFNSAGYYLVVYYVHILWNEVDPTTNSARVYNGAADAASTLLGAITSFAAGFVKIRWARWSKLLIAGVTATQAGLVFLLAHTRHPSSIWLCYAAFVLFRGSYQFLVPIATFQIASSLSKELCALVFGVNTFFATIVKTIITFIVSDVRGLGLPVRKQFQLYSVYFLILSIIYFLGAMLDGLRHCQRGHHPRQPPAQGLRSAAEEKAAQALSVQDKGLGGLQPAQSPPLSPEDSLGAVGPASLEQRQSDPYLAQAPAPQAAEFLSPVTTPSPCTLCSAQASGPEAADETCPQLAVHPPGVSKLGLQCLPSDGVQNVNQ

CCRF-CEM = test: Growth inhibition of human CCRF-CEM cells after 72 hrs; assay type: functional, cell-based

Ki (Dihydrofolate reductase) [nM] | Ki [1] [nM] | IC50 (CCRF-CEM) [nM] | Structure (SMILES)
2.1 | 1100 | 140 | CN(Cc1cnc2nc(N)nc(N)c2n1)c1ccc2c(c1)CN([C@@H](CCC(=O)O)C(=O)O)C2=O
0.034 | 280 | 5.1 | Nc1nc(N)c2nc(CNc3ccc4c(c3)CN([C@@H](CCC(=O)O)C(=O)O)C4=O)cnc2n1
0.077 | 530 | 8.4 | Nc1nc(N)c2nc(CNc3ccc4c(c3)CN(C(CCC(=O)O)C(=O)O)C4=O)cnc2n1 (racemic)
